Assay: xn = mol fraction of the nth substance listed
Conditions: Liquid, Vibrating tube method

CCCCCCCCCC [decane] + COC(=O)OC
mass density [kg/m3]
Conditions | 288.15 K | 293.15 K | 298.15 K | 303.15 K | 308.15 K | 313.15 K | 318.15 K | 323.15 K | 328.15 K
100 kPa, x2 = 0.0676 | 741.97 | 738.16 | 734.31 | 730.48 | 726.53 | 722.58 | 718.68 | 714.71 | 710.69
100 kPa, x2 = 0.2303 | 767.95 | 763.84 | 759.7 | 755.57 | 751.35 | 747.1 | 742.9 | 738.81 | 734.47
100 kPa, x2 = 0.2934 | 780.23 | 775.99 | 771.64 | 767.36 | 763 | 758.66 | 754.31 | 749.94 | 745.53
100 kPa, x2 = 0.4055 | 804.52 | 799.94 | 795.37 | 790.78 | 786.2 | 781.63 | 777.08 | 772.41 | 767.74
100 kPa, x2 = 0.502 | 829.72 | 824.83 | 819.95 | 815.09 | 810.29 | 805.45 | 800.57 | 795.68 | 790.73
100 kPa, x2 = 0.5476 | 843.28 | 838.17 | 833.19 | 828.19 | 823.17 | 818.21 | 813.18 | 808.16 | 803.07
100 kPa, x2 = 0.5883 | – | 851.08 | 845.93 | 840.82 | 835.71 | – | – | – | –
100 kPa, x2 = 0.665 | 883.8 | 878.01 | 872.69 | 867.33 | 861.96 | 856.63 | 851.25 | 845.86 | 840.35
100 kPa, x2 = 0.7101 | 901.71 | 896.39 | 890.82 | 885.21 | 879.57 | 874 | 868.41 | 862.69 | 857.01
100 kPa, x2 = 0.7993 | – | 936.74 | 930.88 | 925.09 | 919.3 | 913.46 | 907.56 | 901.72 | 895.68
100 kPa, x2 = 0.9062 | 1004.68 | 998.35 | 992.18 | 985.93 | 979.75 | 973.48 | 967.13 | 960.79 | 954.3
10000 kPa, x2 = 0.0676 | 749.1 | 745.45 | 741.8 | 738.15 | 734.45 | 730.76 | 727.04 | 723.36 | 719.66
10000 kPa, x2 = 0.2303 | 775.45 | 771.54 | 767.62 | 763.68 | 759.73 | 755.75 | 751.73 | 747.9 | 743.93
10000 kPa, x2 = 0.2934 | 787.82 | 783.79 | 779.68 | 775.58 | 771.51 | 767.5 | 763.4 | 759.3 | 755.2
10000 kPa, x2 = 0.4055 | 812.34 | 807.99 | 803.65 | 799.32 | 794.99 | 790.74 | 786.45 | 782.1 | 777.74
10000 kPa, x2 = 0.502 | 837.73 | 833.07 | 828.44 | 823.86 | 819.3 | 814.81 | 810.24 | 805.66 | 801.04
10000 kPa, x2 = 0.5476 | 851.4 | 846.56 | 841.77 | 837.03 | 832.33 | 827.67 | 822.96 | 818.26 | 813.56
10000 kPa, x2 = 0.5883 | – | 859.46 | 854.59 | 849.74 | 844.95 | – | – | – | –
10000 kPa, x2 = 0.665 | – | 886.63 | 881.52 | 876.43 | 871.37 | 866.37 | 861.33 | 856.25 | 851.18
10000 kPa, x2 = 0.7101 | – | 905.11 | 899.75 | 894.46 | 889.19 | 883.94 | 878.62 | 873.27 | 867.93
10000 kPa, x2 = 0.7993 | – | 945.44 | 939.91 | 934.41 | 928.93 | 923.44 | 917.9 | 912.4 | 906.86
10000 kPa, x2 = 0.9062 | 1013.19 | 1007.19 | 1001.24 | 995.33 | 989.47 | 983.52 | 977.56 | 971.62 | 965.6
20000 kPa, x2 = 0.0676 | 755.73 | 752.25 | 748.75 | 745.3 | 741.78 | 738.28 | 734.75 | 731.25 | 727.74
20000 kPa, x2 = 0.2303 | 782.4 | 778.69 | 774.95 | 771.21 | 767.45 | 763.69 | 759.87 | 756.2 | 752.49
20000 kPa, x2 = 0.2934 | 794.87 | 791.01 | 787.1 | 783.23 | 779.37 | 775.54 | 771.65 | 767.8 | 763.94
20000 kPa, x2 = 0.4055 | 819.59 | 815.46 | 811.3 | 807.2 | 803.1 | 799.07 | 794.97 | 790.9 | 786.78
20000 kPa, x2 = 0.502 | 844.78 | 840.72 | 836.29 | 831.94 | 827.62 | 823.33 | 819.01 | 814.72 | 810.36
20000 kPa, x2 = 0.5476 | – | 854.35 | 849.77 | 845.25 | 840.77 | 836.31 | 831.86 | 827.41 | 822.99
20000 kPa, x2 = 0.5883 | – | 867.28 | 862.62 | 858.02 | 853.46 | – | – | – | –
20000 kPa, x2 = 0.665 | – | 894.64 | 889.73 | 884.86 | 880.05 | 875.3 | 870.52 | 865.73 | 860.94
20000 kPa, x2 = 0.7101 | – | 913.24 | 908.1 | 903.07 | 898.05 | 893.08 | 888.03 | 882.95 | 877.85
20000 kPa, x2 = 0.7993 | – | 953.46 | 948.28 | 943.03 | 937.83 | 932.63 | 927.38 | 922.17 | 916.93
20000 kPa, x2 = 0.9062 | 1021.19 | 1015.43 | 1009.74 | 1004.09 | 998.48 | 992.81 | 987.16 | 981.53 | 975.83
30000 kPa, x2 = 0.0676 | 761.88 | 758.56 | 755.23 | 751.9 | 748.49 | 745.23 | 741.84 | 738.46 | 735.12
30000 kPa, x2 = 0.2303 | 788.87 | 785.31 | 781.73 | 778.15 | 774.52 | 770.99 | 767.35 | 763.83 | 760.25
30000 kPa, x2 = 0.2934 | 801.43 | 797.71 | – | 790.27 | 786.53 | 782.96 | 779.22 | 775.53 | 771.85
30000 kPa, x2 = 0.4055 | 826.32 | 822.34 | 818.38 | 814.45 | 810.51 | 806.72 | 802.8 | 798.87 | 794.98
30000 kPa, x2 = 0.502 | – | 847.8 | 843.57 | 839.39 | 835.23 | 831.19 | 827.05 | 822.91 | 818.78
30000 kPa, x2 = 0.5476 | – | 861.57 | 857.18 | 852.82 | 848.52 | 844.29 | 840 | 835.74 | 831.5
30000 kPa, x2 = 0.5883 | – | 874.53 | 870.04 | 865.63 | 861.27 | – | – | – | –
30000 kPa, x2 = 0.665 | – | 902.11 | 897.31 | 892.63 | 888.01 | 883.49 | 878.91 | 874.34 | 869.79
30000 kPa, x2 = 0.7101 | – | 920.82 | 915.87 | 911.02 | 906.21 | 901.47 | 896.64 | 891.78 | 886.87
30000 kPa, x2 = 0.7993 | – | – | 956.06 | 951.01 | 946.02 | 941.03 | 936.02 | 931.08 | 926.1
30000 kPa, x2 = 0.9062 | 1028.63 | 1023.08 | 1017.62 | 1012.2 | 1006.83 | 1001.36 | 995.97 | 990.6 | 985.17
40000 kPa, x2 = 0.0676 | 767.71 | 764.48 | 761.28 | 758.05 | – | 751.65 | 748.36 | 745.15 | 741.93
40000 kPa, x2 = 0.2303 | 794.93 | 791.49 | 788.05 | 784.61 | – | 777.72 | 774.2 | 770.85 | 767.41
40000 kPa, x2 = 0.2934 | 807.54 | 803.97 | 800.4 | 796.82 | – | 789.79 | 786.19 | 782.66 | 779.13
40000 kPa, x2 = 0.4055 | 832.65 | 828.8 | 825 | 821.19 | – | 813.78 | 809.98 | 806.24 | 802.5
40000 kPa, x2 = 0.502 | – | 854.44 | 850.35 | 846.29 | – | 838.42 | 834.42 | 830.5 | 826.54
40000 kPa, x2 = 0.5476 | – | 868.38 | 864.11 | 859.91 | – | 851.66 | 847.53 | 843.43 | 839.36
40000 kPa, x2 = 0.5883 | – | – | 876.98 | 872.72 | – | – | – | – | –
40000 kPa, x2 = 0.665 | – | – | 904.39 | 899.87 | – | 891.08 | 886.65 | 882.27 | 877.9
40000 kPa, x2 = 0.7101 | – | – | 923.09 | 918.42 | – | 909.27 | 904.62 | 899.97 | 895.22
40000 kPa, x2 = 0.7993 | – | – | – | 958.41 | – | 948.81 | 944 | 939.25 | 934.48
40000 kPa, x2 = 0.9062 | 1035.61 | 1030.28 | 1025.01 | 1019.78 | – | 1009.35 | 1004.15 | – | 993.79

Source: the NIST ThermoML archive (doi:10.1021/je0342320)
